Entries after “also recorded” stand apart in the source; their conditions may differ.
How the values were obtained:
Format in all cases: in vivo, mouse
[1] = tested on: acetylation of histone H3 and H4 in the amygdala; assay: Histone H3 and H4 acetylation ELISA in amygdala; settings: n=7 mice/group, vs NaCl
Description: Amygdala samples were thawed, and the histone fractions were prepared using a commercial histone extraction kit (Abcam, Cambridge, UK) following manufacturers instruction. The bulk acetylation of histone H3 and H4 was determined using commercial ELISA kits according to the manufacturer's instructions (Abcam, Cambridge, UK). The OD of the samples was measured using a 96 well plate reader at 450 nm (iMark™ Microplate Absorbance Reader; Biorad, CA, USA). The amounts of acetyl histone H3 and H4 were measured by comparing to the kit supplied standards.
The total acetylation levels of histone H3 and H4 were quantified in the amygdala of mice subjected to the DID paradigm following supplementation with sodium valerate or NaCl (n=7 mice/group).

[2] = Daily body weight, food and fluid intake monitoring; settings: 10-day supplementation
Text: Male C57BL/6J mice, (RRID: IMSR_JAX: 000664), aged 6-8 weeks, were obtained from Jackson Laboratories (ME, U.S.A) for the study. The mice were housed individually under a reversed 12-hours light/dark cycle, with lights off from […] to 7:00 am. A minimum acclimation period of 2 weeks was provided for all animals before they were randomly assigned to their respective groups. Mice had free access to food (Irradiated chow, Teklad global 18% protein rodent diet, 2918, Inotiv, WI, U.S.A) and deionized water to acclimate to the testing environment. Body weight and daily food and fluid intake were monitored and noted for all animal experiments.
The food intake was assessed by providing a pre-weighed amount of food in their cage hopper and then weighing the remaining food inside the cage and in the hopper daily. To assess daily fluid intake, the sodium valerate and NaCl bottles were pre-weighed, and the remaining amount was deducted after the measurement period. Food and fluid intakes were normalized to mouse body weight by dividing the average intake by the average body weight.

[3] = tested on: male C57BL/6J mice; assay: Intermittent-access 20% ethanol two-bottle-choice drinking
Description: Twenty male C57BL/6J mice were given access to 20% ethanol for three 24-hour sessions per week. On the first Monday, Wednesday, and Friday, mice were offered increasing concentrations of ethanol (3%, 6%, and 10% w/v, respectively) in one bottle, with water in a second bottle, to acclimate them to ethanol consumption. After this acclimation, mice received one bottle of 20% ethanol and one bottle of water every Monday, Wednesday, and Friday for 24 hours. To minimize side bias, the position of the bottles in the cage was alternated between sessions.
For the first 8 weeks, mice received intraperitoneal (i.p.) injections of phosphate-buffered saline (PBS) 30 minutes prior to each ethanol session to establish stable ethanol consumption (g/kg) and ethanol preference (ethanol intake as a proportion of total fluid intake). In the following 4 weeks (12 sessions), mice were randomly assigned to receive i.p. injections of either sodium valerate or sodium chloride (NaCl) at a dose of 600 mg/kg, 30 minutes before each ethanol session (n=10 per group). Ethanol and water consumption, as well as ethanol preference, were measured throughout the study to assess the effects of sodium valerate on ethanol drinking behavior compared to the NaCl control. After each 24-hour access period, the ethanol and water bottles were weighed, and mouse body weights were recorded to calculate ethanol intake (g/kg/24 hours) and water intake (mL/kg/24 hours). Ethanol preference was calculated as the ratio of ethanol intake to total fluid intake.

[4] = tested on: gut microbiome; assay: 16S rRNA sequencing of stool and gut-brain module analysis; settings: stool
Description: Microbial genomic DNA extraction from mouse stool samples was carried out using the Quick-DNA Fecal/Soil Microbe 96 Kit (Zymo Research, CA, U.S.A) following the manufacturer's protocols. The hypervariable region V4 of the bacterial 16S rRNA gene, 515F (5′-[sequence]-3′ (SEQ ID NO: 1)) and 806R (5′-[sequence]-3′ (SEQ ID NO: 2)) was amplified and sequenced on the Illumina MiSeq platform (2×250 bp) (Illumina, CA, U.S.A). The raw sequencing reads were processed via the DADA2 V1.16 (RRID:SCR_023519) data processing pipeline to generate amplicon sequence variants (ASVs). Taxonomic assignments were made using the Silva database V138.1 (RRID:SCR_006423), with a classification confidence threshold set at p<0.5 for assigning unclassified taxa at their respective taxonomical levels. PCR negative controls and extraction controls for DNA extraction and sequencing were included in the analysis. […] Sequencing reads from all the samples were rarified to 10,000 reads per sample. […] All of the microbiome analysis was done in R.
16S rRNA gene sequencing of stool samples collected before and after sodium valerate treatment (n=7 mice/group) was performed. […] Permutational multivariate analysis of variance (PERMANOVA) tests were performed on CLR-transformed data to test for beta-diversity differences between sodium valerate and NaCl-supplemented groups (n=14 mice/group).

For `CCCCC(=O)[O-].[Na+]` [sodium valerate], the “increase in H3 acetylation in the amygdala” value [1] was “not statistically significant”, the “H4 acetylation in the amygdala” value ([1]; p<0.01) was “significantly increased” and the “body weight vs NaCl group” value ([2]; n=10 mice/group) was “did not differ significantly; also recorded: did not affect”. The “fluid intake (intake of sodium valerate and NaCl) vs NaCl group” value ([2]; n=14 mice/group) was “no statistical difference; also recorded: did not affect”, the “food consumption vs NaCl group” value ([2]; n=14 mice/group) was “no statistical difference; also recorded: did not affect” and the “ethanol consumption, week 11” value ([3]; 600 mg/kg i.p. 30 min before each session, n=10, baseline 24.38±4.19, p<0.001) was 15.47±1.49 g/kg/24 hours. For the same compound, the “ethanol preference, week 11” value ([3]; 600 mg/kg i.p. 30 min before each session, n=10, baseline 66.81±4.8%, p<0.01) was 54.26±4.5%, the “ethanol intake, week 12” value ([3]; 600 mg/kg i.p. 30 min before each session, n=10, p<0.001 vs baseline) was 13.42±1.60 g/kg/24 hours and the “ethanol preference, week 12” value ([3]; 600 mg/kg i.p. 30 min before each session, n=10, p<0.01 vs baseline) was 52.06±3.92%. For the same compound, the “ethanol consumption compared to the NaCl control group” value ([3]; 600 mg/kg i.p., weeks 11 and 12, p<0.001 for both weeks) was “significantly lower”, the “ethanol preference compared to the NaCl control group” value ([3]; 600 mg/kg i.p., weeks 11 and 12, p<0.01 for both weeks) was “significantly lower” and the “abundance of Ileibacterium genera” value ([4]; 10 days supplementation, adjusted p=0.24, unadjusted p=0.004) was “increase in abundance”. For the same compound, the “beta-diversity between sodium valerate and NaCl groups” value ([4]; after 10 days of supplementation, PERMANOVA/PCA) was “increased dissimilarity” and the “Dubosiella abundance, log2Fold change” value ([4]; after 10 days supplementation, DESeq2, adjusted p=9.46E-5) was 7.84.

Reference: patent publication US20250387360A1, “Methods and Compositions for Treatment of Addiction” (University of Connecticut, priority 2024, published 2025)
